From ChEMBL document CHEMBL5365504, “Psychoplastogens: A Novel Therapeutic Approach for Neurological Diseases and Disorders” (ACS Med Chem Lett, 2023)
pEC50: −log10 of the molar value.

Legend:
Assay type in all cases: functional, cell-based
Conditions in all cases: 72 h
Cortical neurone [1] = experiment: Induction of neurite outgrowth in Wistar rat Cortical neuron cells assessed as increase in neurite number incubated for 3 days by DAPI staining based high-content screening method
Cortical neurone [2] = experiment: Induction of neurite outgrowth in Wistar rat Cortical neuron cells assessed as increase in neurite length incubated for 3 days by DAPI staining based high-content screening method
Cortical neurone [3] = experiment: Induction of neurite outgrowth in Wistar rat Cortical neuron cells assessed as increase in number of branch points incubated for 3 days by DAPI staining based high-content screening method

| Structure (SMILES) | pEC50 (Cortical neurone [1]) | pEC50 (Cortical neurone [2]) | pEC50 (Cortical neurone [3]) |
| --- | --- | --- | --- |
| C[C@H](Cn1ccc2cc(OCc3ccccc3)ccc21)N1CCCC1 | > 8.00 | > 8.00 | 8.00 |
| C[C@@H](N)Cn1ccc2cc(OCc3cccc(F)c3)ccc21 | 8.00 | > 8.00 | > 8.00 |
| C[C@H](Cn1ccc2cc(OCc3cccc(F)c3)ccc21)N(C)C | > 8.00 | > 8.00 | > 8.00 |
| C[C@H](Cn1ccc2cc(OCc3ccccc3)ccc21)N(C)C | 8.00 | > 8.00 | 8.00 |
| C[C@@H](N)Cn1ccc2cc(OCc3ccccc3F)ccc21 | > 8.00 | 8.00 | > 8.00 |
| CN[C@H](C)Cn1ccc2cc(OCc3ccccc3)ccc21 | > 8.00 | > 8.00 | > 8.00 |
| C[C@H](Cn1ccc2cc(OCc3ccc(F)cc3)ccc21)N(C)C | > 8.00 | > 8.00 | > 8.00 |
| CCN(CC)[C@H](C)Cn1ccc2cc(OCc3ccccc3)ccc21 | > 8.00 | > 8.00 | > 8.00 |
| C[C@H](Cn1ccc2nc(OCc3ccccc3)ccc21)N(C)C | > 8.00 | > 8.00 | > 8.00 |
| C[C@H](Cn1ccc2cc(OCc3ccccc3F)ccc21)N(C)C | > 8.00 | > 8.00 | > 8.00 |
| C[C@@H](N)Cn1ccc2cc(OCc3ccc(F)cc3)ccc21 | 8.00 | 8.00 | 8.00 |
